Article PMC11434100, “Biomimetic Metal–Organic Framework Gated Nanoplatform for Sonodynamic Therapy against Extensively Drug Resistant Bacterial Lung Infection” (Advanced Science, 2024)
≈ marks a conversion by molar mass, not a printed value.

Key:
[1] = test system: XDR-AB; experiment: Drug sensitivity test of clinical strains (Table S2); type: cell-based, Acinetobacter baumannii; conditions: value in brackets; for MIC: Acinetobacter baumannii
[2] = test system: XDR-PA; experiment: as above; type: cell-based, Pseudomonas aeruginosa; conditions: value in brackets; for MIC: Pseudomonas aeruginosa
[3] = test system: XDR-Kp; experiment: as above; type: cell-based, Klebsiella pneumoniae; conditions: value in brackets; for MIC: Klebsiella pneumoniae
[4] = test system: XDR-E. coli; experiment: as above; type: cell-based, Escherichia coli; conditions: value in brackets; for MIC: Escherichia coli
[5] = test system: XDR-AB (clinically isolated XDR Acinetobacter baumannii); experiment: Minimum inhibitory concentration, broth dilution (Table S1); type: cell-based; conditions: CLSI guidelines, 10^5 CFU mL−1, 24 h, 37 °C, visible growth
Procedure: (§1) Four clinically isolated XDR strains were cultured in LB media at 37 °C with rotation (180 rpm) overnight. […] The bacterial concentration was adjusted to 10^5 CFU mL^−1.

[6] = test system: XDR-E. coli (clinically isolated XDR Escherichia coli); experiment: as above; type: cell-based; conditions: CLSI guidelines, 10^5 CFU mL−1, 24 h, 37 °C, visible growth
Procedure: as §1

[7] = test system: XDR-Kp (clinically isolated XDR Klebsiella pneumoniae); experiment: as above; type: cell-based; conditions: CLSI guidelines, 10^5 CFU mL−1, 24 h, 37 °C, visible growth
Procedure: as §1

[8] = test system: XDR-PA (clinically isolated XDR Pseudomonas aeruginosa); experiment: as above; type: cell-based; conditions: CLSI guidelines, 10^5 CFU mL−1, 24 h, 37 °C, visible growth
Procedure: as §1

Compound	MIC [1]	MIC [2]	MIC [3]	MIC [4]	other results
NCC[C@H](O)C(=O)N[C@@H]1C[C@H](N)[C@@H](O[C@H]2O[C@H](CN)[C@@H](O)[C@H](O)[C@H]2O)[C@H](O)[C@H]1O[C@H]1O[C@H](CO)[C@@H](O)[C@H](N)[C@H]1O [Amikacin]	≥ 64 µg/mL	≥ 64 µg/mL	≥ 64 µg/mL	≥ 64 µg/mL	
CC1(C)S[C@@H]2[C@H](NC(=O)[C@H](N)c3ccccc3)C(=O)N2[C@H]1C(=O)O [Ampicillin]	≥ 32 µg/mL	≥ 32 µg/mL	≥ 32 µg/mL	≥ 32 µg/mL	
Cc1nnc(SCC2=C(C(=O)O)N3C(=O)[C@@H](NC(=O)Cn4cnnn4)[C@H]3SC2)s1 [Cefazolin]	≥ 64 µg/mL	≥ 64 µg/mL	≥ 64 µg/mL	≥ 64 µg/mL	
CO/N=C(\C(=O)N[C@@H]1C(=O)N2C(C(=O)[O-])=C(C[N+]3(C)CCCC3)CS[C@H]12)c1csc(N)n1 [Cefepime]	≥ 64 µg/mL	≥ 64 µg/mL	≥ 64 µg/mL	≥ 64 µg/mL	
CO[C@@]1(NC(=O)C2SC(=C(C(N)=O)C(=O)O)S2)C(=O)N2C(C(=O)O)=C(CSc3nnnn3C)CS[C@@H]21 (some centres unmarked) [Cefotetan]	≥ 64 µg/mL	≥ 64 µg/mL	≥ 64 µg/mL	≥ 64 µg/mL	
CC(C)(O/N=C(\C(=O)N[C@@H]1C(=O)N2C(C(=O)[O-])=C(C[n+]3ccccc3)CS[C@H]12)c1csc(N)n1)C(=O)O [Ceftazidime]	≥ 64 µg/mL	≥ 64 µg/mL	≥ 64 µg/mL	≥ 64 µg/mL	
C[C@@H](O)[C@H]1C(=O)N2C(C(=O)O)=C(SCCN=CN)C[C@H]12 [Imipenem]	≥ 16 µg/mL	≥ 16 µg/mL	≥ 16 µg/mL	≥ 16 µg/mL	
C[C@H]1COc2c(N3CCN(C)CC3)c(F)cc3c(=O)c(C(=O)O)cn1c23 [Levofloxacin]	≥ 8 µg/mL	≥ 8 µg/mL	≥ 8 µg/mL	11 µg/mL (≈ 30.4 µM)	
CN(C)c1cc(NC(=O)CNC(C)(C)C)c(O)c2c1C[C@H]1C[C@H]3[C@H](N(C)C)C(O)=C(C(N)=O)C(=O)[C@@]3(O)C(O)=C1C2=O [Tigecycline]	0.38 µg/mL (≈ 0.649 µM)				
NC[C@H]1O[C@H](O[C@H]2[C@H](O)[C@@H](O[C@H]3O[C@H](CO)[C@@H](O)[C@H](N)[C@H]3O)[C@H](N)C[C@@H]2N)[C@H](N)C[C@@H]1O [Tobramycin]	≥ 16 µg/mL	≥ 16 µg/mL	≥ 16 µg/mL	≥ 16 µg/mL	
Gentamycin					MIC (drug sensitivity test) [1]: >= 16 µg mL-1; MIC (drug sensitivity test) [2]: >= 16 µg mL-1; MIC (drug sensitivity test) [3]: >= 16 µg mL-1; MIC (drug sensitivity test) [4]: >= 16 µg mL-1
Polymyxin B [PMB]					MIC [5]: 32 µg/mL; MIC [6]: 16 µg/mL; MIC [7]: 16 µg/mL; MIC [8]: 8 µg/mL; MIC (drug sensitivity test) [2]: 0.5 µg/mL; MIC (drug sensitivity test) [4]: 0.5 µg/mL
